Test [1] relates to HCV genotype 1b replicon. The test can be described thus: HCV replicon assay, genotype 1b replicon EC50. The settings on record: Hepatitis C virus, genotype 1b replicon, read-out: EC50 [gt-1b]. In kind it is cell-based, Hepatitis C virus. In outline: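 Stable neomycin-selected genotype 1b replicon cells, some carrying luciferase:Neo^r fusion, plated without G418 with a compound dilution series and incubated 24-48 h. Read-out was RNA (^32P-probe protection or TaqMan, normalized to cyclophilin A) or luciferase activity. EC50 from four-parameter fit as percent of DMSO control.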
On the technique in general: A replicon is a self-replicating genome or part of one, used to study replication in cells.

In test [2] the target is HCV NS3/4A protease genotype 1b (Hepatitis C virus genotype 1b, UniProt P26663). As to the kind of experiment: HCV NS3/4A protease time-resolved fluorescence (TRF) assay, Ki against genotype 1b. The settings on record: IC50 [gt-1b] (nM), NS3/4A genotype 1b, enzyme 0.2 nM. In kind it is biochemical. The method, boiled down: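 Ki values come from IC50 fits corrected for substrate concentration and KM. The time-resolved fluorescence protease reaction used 25 nM peptide substrate, 2.5 h, room temperature, pH 7.5 HEPES buffer, after 30 min enzyme–inhibitor preincubation.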
HCV NS3/4A protease genotype 1b, sequence (P26663 1027-1657): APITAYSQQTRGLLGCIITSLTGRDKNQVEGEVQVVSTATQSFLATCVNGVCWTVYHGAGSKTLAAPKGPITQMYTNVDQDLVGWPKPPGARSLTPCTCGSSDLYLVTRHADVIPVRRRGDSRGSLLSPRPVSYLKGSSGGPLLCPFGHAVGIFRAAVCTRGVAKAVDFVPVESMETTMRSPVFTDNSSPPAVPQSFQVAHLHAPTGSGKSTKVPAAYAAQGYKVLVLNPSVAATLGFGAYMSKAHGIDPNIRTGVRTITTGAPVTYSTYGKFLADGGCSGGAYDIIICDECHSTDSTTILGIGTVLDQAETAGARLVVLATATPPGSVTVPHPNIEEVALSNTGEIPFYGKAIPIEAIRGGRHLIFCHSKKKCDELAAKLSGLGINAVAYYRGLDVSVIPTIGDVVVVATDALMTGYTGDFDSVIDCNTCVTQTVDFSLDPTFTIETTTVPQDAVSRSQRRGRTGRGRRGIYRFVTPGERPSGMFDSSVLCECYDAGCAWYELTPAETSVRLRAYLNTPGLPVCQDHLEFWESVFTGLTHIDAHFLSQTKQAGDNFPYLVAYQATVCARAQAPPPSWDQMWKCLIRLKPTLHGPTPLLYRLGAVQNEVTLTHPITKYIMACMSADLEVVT
HCV NS3/4A protease genotype 1b, sequence (P26663 1658-1711): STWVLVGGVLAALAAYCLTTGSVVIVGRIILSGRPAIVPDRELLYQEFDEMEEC

Molecules are shown by their SMILES. pEC50: −log10 of the molar value. Read-outs that look alike come from different tables or passages of the source.

Turning to `COc1ccc2nc(C(F)(F)F)c3c(c2c1)[C@H](O)C[C@]1(C[C@H]2C(=O)N[C@]4(C(=O)NS(=O)(=O)C5(C)CC5)C[C@H]4/C=C\CCCCC[C@H](NC(=O)OC(C)(C)C)C(=O)N2C1)O3` [Example 54, tert-Butyl [(1′R,2S,6S,12Z,13aS,14aR,16aS)-1′-hydroxy-9′-methoxy-14a-{[(1-methylcyclopropyl)sulfonyl]carbamoyl}-5,16-dioxo-5′-(trifluoromethyl) -1,1′,2′,5,6,7,8,9,10,11,13a,14,14a,15,16,16a-hexadecahydrospiro[cyclopropa[e]pyrrolo[1,2-a][1,4]diazacyclopentadecine-2,3′-pyrano[2,3-c]quinolin]-6-yl]carbamate], in test [1], the pEC50 was 8.93. In test [2], this compound had an IC50 of 0.012 nM.

Take `COc1ccc2nc(C(F)(F)F)c3c(c2c1)[C@@H](O)C[C@]1(C[C@H]2C(=O)N[C@]4(C(=O)NS(=O)(=O)C5(C)CC5)C[C@H]4/C=C\CCCCC[C@H](NC(=O)OC(C)(C)C)C(=O)N2C1)O3` [Example 55, tert-Butyl [(1′S,2S,6S,12Z,13aS,14aR,16aS)-1′-hydroxy-9′-methoxy-14a-{[(1-methylcyclopropyl)sulfonyl]carbamoyl}-5,16-dioxo-5′-(trifluoromethyl) -1,1′,2′,5,6,7,8,9,10,11,13a,14,14a,15,16,16a-hexadecahydrospiro[cyclopropa[e]pyrrolo[1,2-a][1,4]diazacyclopentadecine-2,3′-pyrano[2,3-c]quinolin]-6-yl]carbamate]: the negative-log EC50 (pEC50) in test [1] was 9.24. This compound also registered an IC50 in test [2] of 0.007 nM.

With `COc1ccc2nc(C)c3c(c2c1)[C@H](F)C[C@]1(C[C@H]2C(=O)N[C@]4(C(=O)NS(=O)(=O)C5(C)CC5)C[C@H]4/C=C\CCCCC[C@H](NC(=O)OC(C)(C)C)C(=O)N2C1)O3` [Example 56, tert-Butyl ((1′R,2S,6S,13aS,14aR,16aS,Z)-1′-fluoro-9′-methoxy-5′-methyl-14a-(((1-methylcyclopropyl)sulfonyl)carbamoyl)-5,16-dioxo-1′,2′,3,5,6,7,8,9,10,11,13a,14,14a, 15,16,16a-hexadecahydro-1H-spiro[cyclopropa[e]pyrrolo[1,2-a][1,4]diazacyclopentadecine-2,3′-pyrano[2,3-c]quinolin]-6-yl)carbamate], the pEC50 in test [1] (K+ salt) was 8.78. The IC50 in test [2] (K+ salt) amounted to 0.008 nM.

With `COc1ccc2nc(C)c3c(c2c1)CC[C@]1(C[C@H]2C(=O)N[C@]4(C(=O)NS(=O)(=O)C5(C)CC5)C[C@H]4/C=C\CCCCC[C@H](Nc4ncccn4)C(=O)N2C1)O3` [Example 57, (2R,6S,13aS,14aR,16aS,Z)-9′-methoxy-5′-methyl-N-((1-methylcyclopropyl)sulfonyl)-5,16-dioxo-6-(pyrimidin-2-ylamino)-1′,2′,3,5,6,7,8,9,10,11,13a,14,14a,15,16,16a-hexadecahydro-1H-spiro[cyclopropa[e]pyrrolo[1,2-a][1,4]diazacyclopentadecine-2,3′-pyrano[2,3-c]quinoline]-14a-carboxamide], the pEC50 in test [1] is 8.03. The same compound came in with an IC50 in test [2] of 0.137 nM.

For the compound `Cc1nc2ccc(C#N)cc2c2c1O[C@]1(CC2)C[C@H]2C(=O)N[C@]3(C(=O)NS(=O)(=O)C4(C)CC4)C[C@H]3/C=C\CCCCC[C@H](NC(=O)OC(C)(C)C)C(=O)N2C1` [Example 59, tert-Butyl ((2R,6S,13aS,14aR,16aS,Z)-9′-cyano-5′-methyl-14a-(((1-methylcyclopropyl)sulfonyl)carbamoyl)-5,16-dioxo-1′,2′,3,5,6,7,8,9,10,11,13a,14,14a,15,16,16a-hexadecahydro-1H-spiro[cyclopropa[e]pyrrolo[1,2-a][1,4]diazacyclopentadecine-2,3′-pyrano[2,3-c]quinolin]-6-yl)carbamate], the pEC50 in test [1] is 8.46. In test [2], this compound registered an IC50 of 0.019 nM.

On to `CC(C)(C)OC(=O)N[C@H]1CCCCC/C=C\[C@@H]2C[C@@]2(C(=O)NS(=O)(=O)C2(C)CC2)NC(=O)[C@@H]2C[C@]3(CCc4c(c(C(F)(F)F)nc5ccc(OCCO)cc45)O3)CN2C1=O` [Example 60, tert-Butyl ((2R,6S,13aS,14aR,16aS,Z)-9′-(2-hydroxyethoxy)-14a-(((1-methylcyclopropyl)sulfonyl)carbamoyl)-5,16-dioxo-5′-(trifluoromethyl)-1′,2′,3,5,6,7,8,9,10,11,13a, 14,14a,15,16,16a-hexadecahydro-1H-spiro[cyclopropa[e]pyrrolo[1,2-a][1,4]diazacyclopentadecine-2,3′-pyrano[2,3-c]quinolin]-6-yl)carbamate], for which, in test [1], the pEC50 is 8.91. In test [2], this compound showed an IC50 of 0.009 nM.

On to `Cc1nc2ccccc2c2c1O[C@]1(CC2)C[C@H]2C(=O)N[C@]3(C(=O)NS(=O)(=O)C4(C)CC4)C[C@H]3/C=C\CCCCC[C@H](NC(=O)N3CCCC3)C(=O)N2C1` [Example 61, (2R,6S,12Z,13aS,14aR,16aS)-5′-methyl-N-[(1-methylcyclopropyl)sulfonyl]-5,16-dioxo-6-[(pyrrolidin-1-ylcarbonyl)amino]-1,1′,2′,6,7,8,9,10,11,13a,14,15,16,16a-tetradecahydrospiro[cyclopropa[e]pyrrolo[1,2-a][1,4]diazacyclopentadecine-2,3′-pyrano[2,3-c]quinoline]-14a(5H)-carboxamide], for which, in test [1], the pEC50 was 7.91. In test [2], this compound displayed an IC50 of 0.015 nM.

Regarding `COc1ccc2nc(C(F)(F)F)c3c(c2c1)C=C[C@]1(CN2C(=O)[C@@H](NC(=O)OC(C)(C)C)CCCCC/C=C\[C@@H]4C[C@@]4(C(=O)NS(=O)(=O)C4(C)CC4)NC(=O)[C@@H]2C1C)O3` (stereo partly drawn) [Example 62, tert-Butyl ((2S,6S,13aS,14aR,16aS,Z)-9′-methoxy-1-methyl-14a-(((1-methylcyclopropyl)sulfonyl)carbamoyl)-5,16-dioxo-5′-(trifluoromethyl)-3,5,6,7,8,9,10,11,13a, 14,14a,15,16,16a-tetradecahydro-1H-spiro[cyclopropa[e]pyrrolo[1,2-a][1,4]diazacyclopentadecine-2,3′-pyrano[2,3-c]quinolin]-6-yl)carbamate], the pEC50 in test [1] is 9.59. In addition, in test [2], inhibition was half-maximal at 0.016 nM (IC50).

Take `COc1ccc2nc(C(F)(F)F)c3c(c2c1)[C@](C)(F)C[C@]1(C[C@H]2C(=O)N[C@]4(C(=O)NS(=O)(=O)C5(C)CC5)C[C@H]4/C=C\CCCCC[C@H](NC(=O)OC(C)(C)C)C(=O)N2C1)O3` [Example 63, tert-Butyl ((1′R,2S,6S,13aS,14aR,16aS,Z)-1′-fluoro-9′-methoxy-1-methyl-14a-(((1-methylcyclopropyl)sulfonyl)carbamoyl)-5,16-dioxo-5′-(trifluoromethyl)-1′,2′,3,5,6,7,8,9,1011,13a,14,14a,15,16,16a-hexadecahydro-1H-spiro[cyclopropa[e]pyrrolo[1,2-a][1,4]diazacyclopentadecine-2,3′-pyrano[2,3-c]quinolin]-6-yl)carbamate]: the pEC50 in test [1] is 9.61. In addition, in test [2], the IC50 stood at 0.007 nM.

For the compound `COc1ccc2nc(C(F)(F)F)c3c(c2c1)[C@@H](N1CCOCC1)C[C@]1(C[C@H]2C(=O)N[C@]4(C(=O)NS(=O)(=O)C5(C)CC5)C[C@H]4/C=C\CCCCC[C@H](NC(=O)OC(C)(C)C)C(=O)N2C1)O3` [Example 65, tert-Butyl((1′S,2R,6S,13aS,14aR,16aS,Z)-9′-methoxy-14a-(((1-methylcyclopropyl)sulfonyl)carbamoyl)-1′-morpholino-5,16-dioxo-5′-(trifluoromethyl) -1′,2′,3,5,6,7,8,9,10,11,13a,14,14a,15,16,16a-hexadecahydro-1H-spiro[cyclopropa[e]pyrrolo[1,2-a][1,4]diazacyclopentadecine-2,3′-pyrano[2,3-c]quinolin]-6-yl)carbamate], the pEC50 in test [1] was 9.83. This compound returned an IC50 in test [2] of 0.011 nM.

`COc1ccc2nc(C(F)(F)F)c3c(c2c1)[C@H](N1CCOCC1)C[C@]1(C[C@H]2C(=O)N[C@]4(C(=O)NS(=O)(=O)C5(C)CC5)C[C@H]4/C=C\CCCCC[C@H](NC(=O)OC(C)(C)C)C(=O)N2C1)O3` [Example 66, tert-Butyl((1′R,2R,6S,13aS,14aR,16aS,Z)-9′-methoxy-14a-(((1-methylcyclopropyl)sulfonyl)carbamoyl)-1′-morpholino-5,16-dioxo-5′-(trifluoromethyl) -1′,2′,3,5,6,7,8,9,10,11,13a,14,14a,15,16,16a-hexadecahydro-1H-spiro[cyclopropa[e]pyrrolo[1,2-α][1,4]diazacyclopentadecine-2,3′-pyrano[2,3-c]quinolin]-6-yl)carbamate]: the pEC50 in test [1] is 9.83. The same compound came in with a concentration for half-maximal inhibition (IC50) in test [2] of 0.011 nM.

On to `CC(C)(C)OC(=O)N[C@H]1CCCCC/C=C\C2CC2(C(=O)NS(=O)(=O)C2(C)CC2)NC(=O)C2C[C@]3(CCc4c(c(C5CC5)nc5ccc(F)cc45)O3)CN2C1=O` (stereo partly drawn) [Example 68, tert-butyl [(2R,6S,12Z)-5′-cyclopropyl-9′-fluoro-14a-{[(1-methylcyclopropyl)sulfonyl]carbamoyl}-5,16-dioxo-1,1′,2′,5,6,7,8,9,10,11,13a,14,14a,15,16,16a-hexadecahydrospiro[cyclopropa[e]pyrrolo[1,2-a][1,4]diazacyclopentadecine-2,3′-pyrano[2,3-c]quinolin]-6-yl]carbamate], for which, in test [1], the pEC50 is 9.01. In test [2], this compound returned an IC50 of 0.016 nM.

By pEC50 is commonly meant the negative decadic logarithm of the EC50, by convention in mol/L. By IC50 is commonly meant the point on the concentration scale where inhibition reaches its midpoint.

The values are drawn from patent publication US8987195B2 (priority 2012, dated 2015).
